What was measured:
[1] = system: Tyrosine-protein kinase ABL1 (Homo sapiens), P00519 [Y253F]; conditions: Compound concentration 1000.0 nM
[2] = molecular target: Activin receptor type-2A (Homo sapiens) (UniProt P27037); conditions: Compound concentration 1000.0 nM
[3] = molecular target: Mitogen-activated protein kinase kinase kinase 6 (Homo sapiens) (UniProt O95382); conditions: Compound concentration 1000.0 nM
[4] = molecular target: Tyrosine-protein kinase receptor UFO (Homo sapiens) (UniProt P30530); conditions: Compound concentration 1000.0 nM
[5] = molecular target: Tyrosine-protein kinase BTK (Homo sapiens) (UniProt Q06187); conditions: Compound concentration 1000.0 nM
[6] = molecular target: Calcium/calmodulin-dependent protein kinase type II subunit alpha (Homo sapiens) (UniProt Q9UQM7); conditions: Compound concentration 1000.0 nM
[7] = molecular target: Cyclin-dependent kinase 4 (Homo sapiens) (UniProt P11802); conditions: Compound concentration 1000.0 nM
[8] = molecular target: Death-associated protein kinase 3 (Homo sapiens) (UniProt O43293); conditions: Compound concentration 1000.0 nM
[9] = molecular target: Dual specificity tyrosine-phosphorylation-regulated kinase 2 (Homo sapiens) (UniProt Q92630); conditions: Compound concentration 1000.0 nM
[10] = molecular target: Ephrin type-A receptor 1 (Homo sapiens) (UniProt P21709); conditions: Compound concentration 1000.0 nM
[11] = molecular target: Ephrin type-B receptor 6 (Homo sapiens) (UniProt O15197); conditions: Compound concentration 1000.0 nM
[12] = molecular target: Mitogen-activated protein kinase 15 (Homo sapiens) (UniProt Q8TD08); conditions: Compound concentration 1000.0 nM
[13] = molecular target: Fibroblast growth factor receptor 1 (Homo sapiens) (UniProt P11362); conditions: Compound concentration 1000.0 nM
[14] = molecular target: Tyrosine-protein kinase Fyn (Homo sapiens) (UniProt P06241); conditions: Compound concentration 1000.0 nM
[15] = system: eIF-2-alpha kinase GCN2 (Homo sapiens), Q9P2K8 [S808G]; conditions: Compound concentration 1000.0 nM
[16] = molecular target: Mitogen-activated protein kinase kinase kinase kinase 1 (Homo sapiens) (UniProt Q92918); conditions: Compound concentration 1000.0 nM
[17] = molecular target: Serine/threonine-protein kinase ICK (Homo sapiens) (UniProt Q9UPZ9); conditions: Compound concentration 1000.0 nM
[18] = molecular target: Tyrosine-protein kinase JAK3 (Homo sapiens) (UniProt P52333); conditions: Compound concentration 1000.0 nM
[19] = molecular target: Mitogen-activated protein kinase 8 (Homo sapiens) (UniProt P45983); conditions: Compound concentration 1000.0 nM
[20] = system: Mast/stem cell growth factor receptor Kit (Homo sapiens), P10721 [A829P]; conditions: Compound concentration 1000.0 nM
[21] = molecular target: Mitogen-activated protein kinase kinase kinase 4 (Homo sapiens) (UniProt Q9Y6R4); conditions: Compound concentration 1000.0 nM
[22] = molecular target: Mitogen-activated protein kinase kinase kinase kinase 4 (Homo sapiens) (UniProt O95819); conditions: Compound concentration 1000.0 nM
[23] = molecular target: Maternal embryonic leucine zipper kinase (Homo sapiens) (UniProt Q14680); conditions: Compound concentration 1000.0 nM
[24] = molecular target: Mitogen-activated protein kinase 13 (Homo sapiens) (UniProt O15264); conditions: Compound concentration 1000.0 nM
[25] = molecular target: Phosphatidylinositol 4-phosphate 3-kinase C2 domain-containing subunit beta (Homo sapiens) (UniProt O00750); conditions: Compound concentration 1000.0 nM
[26] = system: Phosphatidylinositol 4,5-bisphosphate 3-kinase catalytic subunit alpha isoform (Homo sapiens), P42336 [E545K]; conditions: Compound concentration 1000.0 nM
[27] = system: Phosphatidylinositol 4,5-bisphosphate 3-kinase catalytic subunit alpha isoform (Homo sapiens), P42336 [H1047L]; conditions: Compound concentration 1000.0 nM
[28] = molecular target: Serine/threonine-protein kinase pim-2 (Homo sapiens) (UniProt Q9P1W9); conditions: Compound concentration 1000.0 nM
[29] = molecular target: Serine/threonine-protein kinase N2 (Homo sapiens) (UniProt Q16513); conditions: Compound concentration 1000.0 nM
[30] = molecular target: cAMP-dependent protein kinase catalytic subunit PRKX (Homo sapiens) (UniProt P51817); conditions: Compound concentration 1000.0 nM
[31] = system: Proto-oncogene tyrosine-protein kinase receptor Ret (Homo sapiens), P07949 [V804M]; conditions: Compound concentration 1000.0 nM
[32] = molecular target: Ribosomal protein S6 kinase alpha-1 (Homo sapiens) (UniProt Q15418); conditions: Compound concentration 1000.0 nM
[33] = molecular target: Serine/threonine-protein kinase SIK2 (Homo sapiens) (UniProt Q9H0K1); conditions: Compound concentration 1000.0 nM
[34] = molecular target: SRSF protein kinase 3 (Homo sapiens) (UniProt Q9UPE1); conditions: Compound concentration 1000.0 nM
[35] = molecular target: STE20/SPS1-related proline-alanine-rich protein kinase (Homo sapiens) (UniProt Q9UEW8); conditions: Compound concentration 1000.0 nM
[36] = molecular target: Non-receptor tyrosine-protein kinase TYK2 (Homo sapiens) (UniProt P29597); conditions: Compound concentration 1000.0 nM
[37] = molecular target: Wee1-like protein kinase (Homo sapiens) (UniProt P30291); conditions: Compound concentration 1000.0 nM
[38] = molecular target: T1, Muscarinic acetylcholine receptor M1 (Homo sapiens) (UniProt P11229); conditions: Compound concentration 10.0 uM
T1 sequence (whole entry): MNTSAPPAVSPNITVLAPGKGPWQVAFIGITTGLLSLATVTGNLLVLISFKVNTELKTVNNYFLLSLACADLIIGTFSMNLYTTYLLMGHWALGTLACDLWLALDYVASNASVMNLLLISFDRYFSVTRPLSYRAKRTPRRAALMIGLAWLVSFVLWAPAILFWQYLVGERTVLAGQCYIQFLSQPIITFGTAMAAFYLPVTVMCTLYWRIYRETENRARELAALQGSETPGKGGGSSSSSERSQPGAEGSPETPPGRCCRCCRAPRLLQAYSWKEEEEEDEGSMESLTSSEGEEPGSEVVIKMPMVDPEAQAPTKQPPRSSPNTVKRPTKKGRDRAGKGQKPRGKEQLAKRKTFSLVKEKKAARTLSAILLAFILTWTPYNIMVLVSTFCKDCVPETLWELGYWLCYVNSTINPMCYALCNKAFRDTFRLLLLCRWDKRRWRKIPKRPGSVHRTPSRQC

Serine/threonine-protein kinase pim-2 (Homo sapiens), sequence (Q9P1W9 whole entry, looked up): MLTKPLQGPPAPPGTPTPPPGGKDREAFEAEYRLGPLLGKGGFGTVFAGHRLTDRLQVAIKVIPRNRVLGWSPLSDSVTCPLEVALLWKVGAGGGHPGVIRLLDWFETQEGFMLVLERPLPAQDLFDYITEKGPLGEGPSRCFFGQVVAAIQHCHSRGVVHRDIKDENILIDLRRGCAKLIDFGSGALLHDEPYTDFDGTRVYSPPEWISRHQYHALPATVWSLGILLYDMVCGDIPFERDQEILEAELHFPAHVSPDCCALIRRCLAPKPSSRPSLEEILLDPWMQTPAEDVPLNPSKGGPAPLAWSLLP
Phosphatidylinositol 4,5-bisphosphate 3-kinase catalytic subunit alpha isoform (Homo sapiens), P42336 [E545K], sequence (P42336 whole entry E545K, canonical isoform): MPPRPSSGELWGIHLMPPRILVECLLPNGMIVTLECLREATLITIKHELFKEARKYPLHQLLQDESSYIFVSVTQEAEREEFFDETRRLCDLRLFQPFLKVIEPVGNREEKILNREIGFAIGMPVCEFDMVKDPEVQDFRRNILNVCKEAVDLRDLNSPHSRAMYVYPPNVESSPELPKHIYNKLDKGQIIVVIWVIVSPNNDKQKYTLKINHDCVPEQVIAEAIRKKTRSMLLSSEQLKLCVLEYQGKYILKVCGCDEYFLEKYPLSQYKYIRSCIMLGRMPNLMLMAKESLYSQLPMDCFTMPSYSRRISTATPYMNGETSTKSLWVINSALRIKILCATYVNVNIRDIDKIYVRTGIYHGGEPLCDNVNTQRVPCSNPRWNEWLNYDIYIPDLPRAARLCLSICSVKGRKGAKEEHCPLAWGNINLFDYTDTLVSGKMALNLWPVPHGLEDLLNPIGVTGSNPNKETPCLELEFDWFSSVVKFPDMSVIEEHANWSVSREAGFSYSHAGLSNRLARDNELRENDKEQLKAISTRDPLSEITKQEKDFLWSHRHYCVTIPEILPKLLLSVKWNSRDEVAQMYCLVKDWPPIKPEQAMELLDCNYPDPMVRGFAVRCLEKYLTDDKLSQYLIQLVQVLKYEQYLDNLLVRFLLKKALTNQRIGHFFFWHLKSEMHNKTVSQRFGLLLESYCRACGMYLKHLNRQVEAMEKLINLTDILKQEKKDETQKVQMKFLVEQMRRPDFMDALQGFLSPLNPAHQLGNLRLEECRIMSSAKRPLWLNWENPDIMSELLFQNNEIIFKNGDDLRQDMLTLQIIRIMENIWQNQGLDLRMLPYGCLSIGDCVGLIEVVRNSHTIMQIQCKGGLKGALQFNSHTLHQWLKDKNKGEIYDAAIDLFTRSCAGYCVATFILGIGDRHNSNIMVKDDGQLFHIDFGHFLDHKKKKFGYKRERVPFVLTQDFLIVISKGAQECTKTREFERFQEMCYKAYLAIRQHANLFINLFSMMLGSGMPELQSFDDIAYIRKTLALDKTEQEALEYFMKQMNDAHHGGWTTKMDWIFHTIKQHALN
Serine/threonine-protein kinase SIK2 (Homo sapiens), sequence (Q9H0K1 whole entry, looked up): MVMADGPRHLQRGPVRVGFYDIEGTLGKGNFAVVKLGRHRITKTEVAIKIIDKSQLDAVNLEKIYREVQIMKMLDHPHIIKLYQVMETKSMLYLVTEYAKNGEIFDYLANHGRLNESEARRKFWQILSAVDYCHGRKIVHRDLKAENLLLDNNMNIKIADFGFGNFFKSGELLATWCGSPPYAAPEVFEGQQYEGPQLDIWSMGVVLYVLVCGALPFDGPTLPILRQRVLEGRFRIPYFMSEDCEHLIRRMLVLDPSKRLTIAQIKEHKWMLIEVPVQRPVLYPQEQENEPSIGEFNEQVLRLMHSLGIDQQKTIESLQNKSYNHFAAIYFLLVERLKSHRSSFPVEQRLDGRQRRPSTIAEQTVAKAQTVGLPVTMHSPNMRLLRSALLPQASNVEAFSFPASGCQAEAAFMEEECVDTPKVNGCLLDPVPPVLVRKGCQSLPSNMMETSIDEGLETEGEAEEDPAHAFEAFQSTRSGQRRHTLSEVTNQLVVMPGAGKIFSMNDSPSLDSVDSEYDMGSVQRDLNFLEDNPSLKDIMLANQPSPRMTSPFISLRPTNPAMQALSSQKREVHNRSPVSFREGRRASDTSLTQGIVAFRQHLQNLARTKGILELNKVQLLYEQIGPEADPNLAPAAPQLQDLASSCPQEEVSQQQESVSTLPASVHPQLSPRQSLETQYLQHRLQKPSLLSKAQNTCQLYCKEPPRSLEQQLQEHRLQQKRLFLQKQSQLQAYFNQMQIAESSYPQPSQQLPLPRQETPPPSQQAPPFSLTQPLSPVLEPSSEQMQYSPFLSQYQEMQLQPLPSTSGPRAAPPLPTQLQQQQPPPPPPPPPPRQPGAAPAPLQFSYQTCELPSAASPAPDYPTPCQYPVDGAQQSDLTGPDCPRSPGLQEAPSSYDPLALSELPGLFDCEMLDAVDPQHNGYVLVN
Death-associated protein kinase 3 (Homo sapiens), sequence (O43293 whole entry, looked up): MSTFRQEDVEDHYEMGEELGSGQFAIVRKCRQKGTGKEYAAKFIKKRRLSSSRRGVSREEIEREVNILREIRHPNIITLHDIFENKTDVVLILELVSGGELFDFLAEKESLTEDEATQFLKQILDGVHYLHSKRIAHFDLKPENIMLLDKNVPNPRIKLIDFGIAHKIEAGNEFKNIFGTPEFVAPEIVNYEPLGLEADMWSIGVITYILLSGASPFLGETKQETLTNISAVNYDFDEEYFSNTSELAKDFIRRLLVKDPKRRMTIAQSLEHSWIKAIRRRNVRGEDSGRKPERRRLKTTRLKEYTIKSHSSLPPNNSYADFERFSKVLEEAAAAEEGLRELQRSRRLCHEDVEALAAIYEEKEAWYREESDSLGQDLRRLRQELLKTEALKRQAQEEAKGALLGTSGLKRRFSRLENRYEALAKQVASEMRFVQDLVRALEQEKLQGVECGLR
cAMP-dependent protein kinase catalytic subunit PRKX (Homo sapiens), sequence (P51817 whole entry): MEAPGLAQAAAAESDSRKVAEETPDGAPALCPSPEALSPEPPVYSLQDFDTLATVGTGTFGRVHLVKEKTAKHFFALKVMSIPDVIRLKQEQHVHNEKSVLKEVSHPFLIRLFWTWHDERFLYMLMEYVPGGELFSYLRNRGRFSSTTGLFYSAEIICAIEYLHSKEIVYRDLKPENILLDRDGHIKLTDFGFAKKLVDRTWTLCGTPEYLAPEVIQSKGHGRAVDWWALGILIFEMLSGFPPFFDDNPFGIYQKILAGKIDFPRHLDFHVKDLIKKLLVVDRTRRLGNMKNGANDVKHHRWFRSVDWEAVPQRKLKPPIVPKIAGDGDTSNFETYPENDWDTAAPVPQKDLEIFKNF
Mitogen-activated protein kinase kinase kinase kinase 4 (Homo sapiens), sequence (O95819 2-1239 limits assumed): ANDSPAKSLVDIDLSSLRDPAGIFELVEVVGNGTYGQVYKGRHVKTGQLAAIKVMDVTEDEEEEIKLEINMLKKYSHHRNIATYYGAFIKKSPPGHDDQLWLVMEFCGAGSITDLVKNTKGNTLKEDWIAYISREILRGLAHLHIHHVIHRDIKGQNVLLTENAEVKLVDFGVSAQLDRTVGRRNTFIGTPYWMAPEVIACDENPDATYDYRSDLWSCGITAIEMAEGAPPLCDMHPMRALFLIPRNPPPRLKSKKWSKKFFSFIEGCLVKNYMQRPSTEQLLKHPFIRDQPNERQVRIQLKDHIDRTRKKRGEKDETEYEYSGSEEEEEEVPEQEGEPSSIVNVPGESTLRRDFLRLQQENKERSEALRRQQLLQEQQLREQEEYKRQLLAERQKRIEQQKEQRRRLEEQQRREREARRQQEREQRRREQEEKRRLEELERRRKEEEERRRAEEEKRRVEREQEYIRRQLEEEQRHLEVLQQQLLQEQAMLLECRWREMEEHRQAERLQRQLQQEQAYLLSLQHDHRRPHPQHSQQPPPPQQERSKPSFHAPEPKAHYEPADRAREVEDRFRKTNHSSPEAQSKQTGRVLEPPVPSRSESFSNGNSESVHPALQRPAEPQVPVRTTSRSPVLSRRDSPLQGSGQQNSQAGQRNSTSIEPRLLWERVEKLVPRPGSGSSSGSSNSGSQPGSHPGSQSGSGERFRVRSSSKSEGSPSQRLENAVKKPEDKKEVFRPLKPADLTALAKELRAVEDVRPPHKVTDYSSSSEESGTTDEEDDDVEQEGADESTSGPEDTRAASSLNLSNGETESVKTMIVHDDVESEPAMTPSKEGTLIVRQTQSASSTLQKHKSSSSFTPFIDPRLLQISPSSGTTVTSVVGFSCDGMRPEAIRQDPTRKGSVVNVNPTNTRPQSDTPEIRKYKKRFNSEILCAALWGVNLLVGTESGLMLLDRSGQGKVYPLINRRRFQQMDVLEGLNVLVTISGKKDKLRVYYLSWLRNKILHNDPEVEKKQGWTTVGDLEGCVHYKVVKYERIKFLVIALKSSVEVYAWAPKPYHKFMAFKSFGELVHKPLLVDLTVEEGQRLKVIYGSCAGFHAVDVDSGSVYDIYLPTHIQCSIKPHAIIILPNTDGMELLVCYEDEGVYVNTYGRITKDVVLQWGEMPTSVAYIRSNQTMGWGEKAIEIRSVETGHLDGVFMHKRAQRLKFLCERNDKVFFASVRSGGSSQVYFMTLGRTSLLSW
Calcium/calmodulin-dependent protein kinase type II subunit alpha (Homo sapiens), sequence (Q9UQM7 whole entry): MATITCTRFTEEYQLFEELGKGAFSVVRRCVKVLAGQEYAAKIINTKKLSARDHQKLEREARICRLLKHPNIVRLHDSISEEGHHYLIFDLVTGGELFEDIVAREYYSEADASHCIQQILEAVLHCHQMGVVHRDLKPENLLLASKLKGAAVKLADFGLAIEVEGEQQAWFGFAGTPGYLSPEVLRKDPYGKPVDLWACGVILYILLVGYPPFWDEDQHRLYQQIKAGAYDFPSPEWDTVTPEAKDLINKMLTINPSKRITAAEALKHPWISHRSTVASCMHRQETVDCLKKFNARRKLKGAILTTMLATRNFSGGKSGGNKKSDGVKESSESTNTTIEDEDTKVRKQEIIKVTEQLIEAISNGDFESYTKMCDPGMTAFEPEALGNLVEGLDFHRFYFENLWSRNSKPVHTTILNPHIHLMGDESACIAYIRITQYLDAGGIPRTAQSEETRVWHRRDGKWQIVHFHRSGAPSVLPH
Phosphatidylinositol 4,5-bisphosphate 3-kinase catalytic subunit alpha isoform (Homo sapiens), P42336 [H1047L], sequence (P42336 whole entry H1047L, canonical isoform): as the sequence (P42336 whole entry E545K, canonical isoform) above, with K545E, H1047L counted along it

N#CC1(c2ccccn2)CCN(Cc2cc(C(=O)N3CCCC3)c(=O)n3ccccc23)CC1
inactive: residual activity [1] 92% | residual activity [2] 78% | residual activity [3] 100% | residual activity [4] 78% | residual activity [5] 100% | residual activity [6] 84% | residual activity [7] 91% | residual activity [8] 86% | residual activity [9] 100% | residual activity [10] 83% | residual activity [11] 100% | residual activity [12] 92% | residual activity [13] 93% | residual activity [14] 83% | residual activity [15] 78% | residual activity [16] 100% | residual activity [17] 100% | residual activity [18] 100% | residual activity [19] 96% | residual activity [20] 50% | residual activity [21] 90% | residual activity [22] 87% | residual activity [23] 78% | residual activity [24] 89% | residual activity [25] 100% | residual activity [26] 76% | residual activity [27] 100% | residual activity [28] 77% | residual activity [29] 88% | residual activity [30] 96% | residual activity [31] 95% | residual activity [32] 79% | residual activity [33] 100% | residual activity [34] 82% | residual activity [35] 75% | residual activity [36] 91% | residual activity [37] 74% | inhibition [38] -2.01%

N#CC1(c2ccccn2)CCN(Cc2cc(C(=O)O)c(=O)n3ccccc23)CC1 [MSD-M1PAM]
inactive: residual activity [1] 72% | residual activity [2] 95% | residual activity [3] 100% | residual activity [4] 91% | residual activity [5] 100% | residual activity [6] 83% | residual activity [7] 94% | residual activity [8] 95% | residual activity [9] 95% | residual activity [10] 100% | residual activity [11] 73% | residual activity [12] 100% | residual activity [13] 98% | residual activity [14] 99% | residual activity [15] 100% | residual activity [16] 100% | residual activity [17] 75% | residual activity [18] 95% | residual activity [19] 85% | residual activity [20] 84% | residual activity [21] 100% | residual activity [22] 87% | residual activity [23] 55% | residual activity [24] 100% | residual activity [25] 97% | residual activity [26] 100% | residual activity [27] 80% | residual activity [28] 100% | residual activity [29] 100% | residual activity [30] 100% | residual activity [31] 92% | residual activity [32] 100% | residual activity [33] 100% | residual activity [34] 95% | residual activity [35] 56% | residual activity [36] 99% | residual activity [37] 99% | inhibition [38] -1%

From ChEMBL document CHEMBL4507295 (2021)
